Among the data in patent US10798941B2, “Microbiocidal oxadiazole derivatives” (SYNGENTA PARTICIPATIONS AG, priority 2016, dated 2020) are pest or weed control, melting point and inhibition of growth values, retold here.

One series concerns Phakopsora pachyrhizi. The series is described as follows: Phakopsora pachyrhizi / soybean / leaf disc preventative (Asian soybean rust). The class given is in vivo. Conditions: foliar, 288 h, 200 ppm in the applied formulation, soybean leaf disks, inoculated one day after application, assessed 12 to 14 days after application, vs untreated, read-out: disease control. The method, boiled down:
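Read-out is percent disease control relative to untreated check discs, assessed once untreated discs show adequate disease, 12 to 14 days after application. Compounds, tested at 200 ppm in the applied formulation, are sprayed onto soybean leaf discs one day before inoculation with a spore suspension.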

Series [1] concerns Puccinia recondita f. Sp. Tritici. The series is described as follows: Puccinia recondita f. sp. tritici / wheat / leaf disc preventative (brown rust). In kind it is in vivo. Particulars: foliar, 168 h, 200 ppm in the applied formulation, wheat leaf segments cv. Kanzler, preventative, inoculated 1 day after application, assessed 7 to 9 days after application, vs untreated, read-out: disease control. The gist of the method: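 Wheat cv. Kanzler leaf segments on agar were sprayed with formulated compound in water, then inoculated with spores 1 day later. Incubated at 19° C, 75% rh, 12 h light/12 h dark; percent disease control versus untreated scored 7 to 9 days after application.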

Series [2] relates to Glomerella Lagenarium (Colletotrichum Lagenarium). The series is described as follows: Glomerella lagenarium (Colletotrichum lagenarium) liquid culture / cucumber / preventative (anthracnose). In kind it is cell-based. Particulars: Colletotrichum orbiculare; 20 ppm in the applied formulation; liquid culture in PDB, 24° C., inhibition of growth measured photometrically 3 to 4 days after application, vs untreated; read-out: disease control. The method, boiled down: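 Conidia from cryogenic storage were mixed into potato dextrose broth. This was added to compound diluted from DMSO into 0.025% Tween20, tested at 20 ppm. Plates were incubated in the dark at 24 °C and 96% relative humidity, and growth was read photometrically after 2–7 days as % activity versus untreated check.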

The subject of series [3] is Puccinia recondita f. Sp. Tritici. The series is described as follows: Puccinia recondita f. sp. tritici / wheat / leaf disc curative (brown rust). In kind it is in vivo. Particulars: foliar, 144 h, 200 ppm in the applied formulation, wheat leaf segments cv. Kanzler, applied 1 day after inoculation, assessed 6 to 8 days after application, vs untreated, read-out: disease control. The method, boiled down:
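Wheat cv. Kanzler leaf segments on agar were inoculated with fungal spore suspension, held dark at 19° C and 75% RH, then sprayed 1 day later with formulated compound diluted in water. Incubation continued at 19° C, 75% RH, 12 h light/12 h dark; percent disease control versus untreated was scored 6 to 8 days after application.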

`FC(F)(F)c1nc(-c2ccc(Cn3cc(-c4ccccn4)nn3)cc2)no1` [Compound 1.22, 3-[4-[[4-(2-pyridyl)triazol-1-yl]methyl]phenyl]-5-(trifluoromethyl)-1,2,4-oxadiazole] gave a melting point of 160.2 to 162.4 °C. In the series with Phakopsora pachyrhizi, the pest or weed control at 200 ppm was at least 80%. The pest or weed control at 200 ppm in series [1] is at least 80%. Also, the inhibition of growth at 20 ppm in series [2] was at least 80%. Moreover, the pest or weed control at 200 ppm in series [3] was at least 80%.
As to `FC(F)(F)c1nc(-c2ccc(Cn3cc(-c4cccnc4)nn3)cc2)no1` [Compound 1.23, 3-[4-[[4-(3-pyridyl)triazol-1-yl]methyl]phenyl]-5-(trifluoromethyl)-1,2,4-oxadiazole], the melting point is 159.8 to 163.1 °C. Further, the pest or weed control at 200 ppm with Phakopsora pachyrhizi was at least 80%. Further, the pest or weed control at 200 ppm in series [1] was at least 80%. Besides, in series [2], the inhibition of growth at 20 ppm was at least 80%. Also, in series [3], the pest or weed control at 200 ppm is at least 80%.
`C[Si](C)(C)c1cn(Cc2ccc(-c3noc(C(F)(F)F)n3)cc2)nn1` [Compound 1.25, trimethyl-[1-[[4-[5-(trifluoromethyl)-1,2,4-oxadiazol-3-yl]phenyl]methyl]triazol-4-yl]silane] returned a melting point of 87.8 to 89.5 °C. Besides, in the series with Phakopsora pachyrhizi, the pest or weed control at 200 ppm was at least 80%. Also, in series [1], the pest or weed control at 200 ppm is at least 80%. The inhibition of growth at 20 ppm in series [2] was at least 80%. The pest or weed control at 200 ppm in series [3] was at least 80%.
On to `CC(C)Cc1cn(Cc2ccc(-c3noc(C(F)(F)F)n3)cc2)nn1` [Compound 1.26, 3-[4-[(4-isobutyltriazol-1-yl)methyl]phenyl]-5-(trifluoromethyl)-1,2,4-oxadiazole], for which the melting point was 113.9 to 115.7 °C. Moreover, the pest or weed control at 200 ppm with Phakopsora pachyrhizi was at least 80%. For the same compound, in series [1], the pest or weed control at 200 ppm is at least 80%. In addition, the inhibition of growth at 20 ppm in series [2] is at least 80%. In addition, the pest or weed control at 200 ppm in series [3] was at least 80%.
Turning to `CC(C)(C)c1cn(Cc2ccc(-c3noc(C(F)(F)F)n3)cc2)nn1` [Compound 1.27, 3-[4-[(4-tert-butyltriazol-1-yl)methyl]phenyl]-5-(trifluoromethyl)-1,2,4-oxadiazole], the melting point was in the range of 90.4 to 92.3 °C. The pest or weed control at 200 ppm in the series on Phakopsora pachyrhizi was at least 80%. The pest or weed control at 200 ppm in series [1] is at least 80%. Further, the inhibition of growth at 20 ppm in series [2] is at least 80%. In series [3], the pest or weed control at 200 ppm is at least 80%.
In turn, `CC(C)(NC(=O)c1ccccc1)c1cn(Cc2ccc(-c3noc(C(F)(F)F)n3)cc2)nn1` [Compound 1.30, N-[1-methyl-1-[1-[[4-[5-(trifluoromethyl)-1,2,4-oxadiazol-3-yl]phenyl]methyl]triazol-4-yl]ethyl]benzamide] came in with a melting point of 157.6 to 161.9 °C. Moreover, the pest or weed control at 200 ppm with Phakopsora pachyrhizi is at least 80%. The pest or weed control at 200 ppm in series [1] is at least 80%. The inhibition of growth at 20 ppm in series [2] is at least 80%. Moreover, in series [3], the pest or weed control at 200 ppm was at least 80%.
For `FC(F)(F)c1nc(-c2ccc(Cn3ccnn3)cc2)no1` [Compound 1.32, 3-[4-(triazol-1-ylmethyl)phenyl]-5-(trifluoromethyl)-1,2,4-oxadiazole], the melting point is 107.6 to 109.5 °C. Moreover, in the series with Phakopsora pachyrhizi, the pest or weed control at 200 ppm was at least 80%. The pest or weed control at 200 ppm in series [1] was at least 80%. Further, in series [2], the inhibition of growth at 20 ppm is at least 80%. Besides, the pest or weed control at 200 ppm in series [3] was at least 80%.
In the case of `FC(F)(F)c1nc(-c2ccc(Cn3nccn3)cc2)no1` [Compound 1.33, 3-[4-(triazol-2-ylmethyl)phenyl]-5-(trifluoromethyl)-1,2,4-oxadiazole], the melting point was in the range of 105.4 to 107.9 °C. Further, the pest or weed control at 200 ppm in the series on Phakopsora pachyrhizi is at least 80%. The pest or weed control at 200 ppm in series [1] was at least 80%. Moreover, the inhibition of growth at 20 ppm in series [2] is at least 80%. The pest or weed control at 200 ppm in series [3] is at least 80%.
In turn, `FC(F)(F)c1nc(-c2ccc(Cn3nc4ccccc4n3)cc2)no1` [Compound 1.34, 3-[4-(benzotriazol-2-ylmethyl)phenyl]-5-(trifluoromethyl)-1,2,4-oxadiazole] came in with a melting point of 112.4 to 116.6 °C. Besides, the pest or weed control at 200 ppm with Phakopsora pachyrhizi is at least 80%. The pest or weed control at 200 ppm in series [1] is at least 80%. In addition, the inhibition of growth at 20 ppm in series [2] was at least 80%. Besides, the pest or weed control at 200 ppm in series [3] was at least 80%.
As for `FC(F)(F)c1nc(-c2ccc(Cn3nnc4ccccc43)cc2)no1` [Compound 1.35, 3-[4-(benzotriazol-1-ylmethyl)phenyl]-5-(trifluoromethyl)-1,2,4-oxadiazole], the melting point fell in the range of 142.3 to 143.2 °C. The pest or weed control at 200 ppm in the series on Phakopsora pachyrhizi was at least 80%. Besides, the pest or weed control at 200 ppm in series [1] was at least 80%. Also, the inhibition of growth at 20 ppm in series [2] was at least 80%. Also, the pest or weed control at 200 ppm in series [3] is at least 80%.
For `FC(F)(F)c1nc(-c2ccc(Cn3cncn3)c(Cl)c2)no1` [Compound 1.99, 3-[3-chloro-4-(1,2,4-triazol-1-ylmethyl)phenyl]-5-(trifluoromethyl)-1,2,4-oxadiazole], the melting point is 63 to 71 °C. For the same compound, the pest or weed control at 200 ppm in the series with Phakopsora pachyrhizi was at least 80%. Besides, the pest or weed control at 200 ppm in series [1] was at least 80%. Further, in series [2], the inhibition of growth at 20 ppm is at least 80%. The pest or weed control at 200 ppm in series [3] is at least 80%.
For the compound `Fc1cc(-c2noc(C(F)(F)F)n2)ccc1Cn1cncn1` [Compound 1.101, 3-[3-fluoro-4-(1,2,4-triazol-1-ylmethyl)phenyl]-5-(trifluoromethyl)-1,2,4-oxadiazole], the melting point was in the range of 52 to 63 °C. The pest or weed control at 200 ppm in the series with Phakopsora pachyrhizi was at least 80%. In addition, the pest or weed control at 200 ppm in series [1] is at least 80%. Besides, the inhibition of growth at 20 ppm in series [2] is at least 80%. The pest or weed control at 200 ppm in series [3] was at least 80%.
In the case of `Cc1nn(Cc2ccc(-c3noc(C(F)(F)F)n3)cc2)c(C)c1C` [Compound 1.146, 5-(trifluoromethyl)-3-[4-[(3,4,5-trimethylpyrazol-1-yl)methyl]phenyl]-1,2,4-oxadiazole], the melting point lay in the range of 99.4 to 102 °C. Further, the pest or weed control at 200 ppm with Phakopsora pachyrhizi is at least 80%. Besides, in series [1], the pest or weed control at 200 ppm was at least 80%. For the same compound, in series [2], the inhibition of growth at 20 ppm was at least 80%. Moreover, the pest or weed control at 200 ppm in series [3] is at least 80%.
The compound `O=C(c1cnn(Cc2ccc(-c3noc(C(F)(F)F)n3)cc2)c1)N1CCOCC1` [Compound 1.261, morpholino-[1-[[4-[5-(trifluoromethyl)-1,2,4-oxadiazol-3-yl]phenyl]methyl]pyrazol-4-yl]methanone] displayed a melting point of 125 to 135 °C. Moreover, the pest or weed control at 200 ppm with Phakopsora pachyrhizi was at least 80%. In addition, the pest or weed control at 200 ppm in series [1] is at least 80%. The inhibition of growth at 20 ppm in series [2] is at least 80%. Moreover, the pest or weed control at 200 ppm in series [3] was at least 80%.
The compound `CN(C)CCOC(=O)c1cnn(Cc2ccc(-c3noc(C(F)(F)F)n3)cc2)c1` [Compound 1.265, 2-(dimethylamino)ethyl 1-[[4-[5-(trifluoromethyl)-1,2,4-oxadiazol-3-yl]phenyl]methyl]pyrazole-4-carboxylate] showed a melting point of 60 to 70 °C. Further, in the series on Phakopsora pachyrhizi, the pest or weed control at 200 ppm was at least 80%. Moreover, the pest or weed control at 200 ppm in series [1] was at least 80%. Moreover, in series [2], the inhibition of growth at 20 ppm was at least 80%. The pest or weed control at 200 ppm in series [3] is at least 80%.
The compound `COC(=O)c1cn(Cc2ccc(-c3noc(C(F)(F)F)n3)cc2)nn1` [Compound 1.270, methyl 1-[[4-[5-(trifluoromethyl)-1,2,4-oxadiazol-3-yl]phenyl]methyl]triazole-4-carboxylate] came in with a melting point of 154 to 156 °C. Also, in the series with Phakopsora pachyrhizi, the pest or weed control at 200 ppm was at least 80%. For the same compound, in series [1], the pest or weed control at 200 ppm was at least 80%. The inhibition of growth at 20 ppm in series [2] was at least 80%. Further, in series [3], the pest or weed control at 200 ppm is at least 80%.
Turning to `O=Cc1cnn(Cc2ccc(-c3noc(C(F)(F)F)n3)cc2)c1` [Compound 1.273, 1-[[4-[5-(trifluoromethyl)-1,2,4-oxadiazol-3-yl]phenyl]methyl]pyrazole-4-carbaldehyde], the melting point was 91 to 96 °C. The pest or weed control at 200 ppm with Phakopsora pachyrhizi is at least 80%. Moreover, the pest or weed control at 200 ppm in series [1] is at least 80%. The inhibition of growth at 20 ppm in series [2] was at least 80%. Also, the pest or weed control at 200 ppm in series [3] is at least 80%.
Compound `CCNC(=O)c1cn(Cc2ccc(-c3noc(C(F)(F)F)n3)cc2)nn1` [Compound 1.274, N-ethyl-1-[[4-(5-(trifluoromethyl)-1,2,4-oxadiazol-3-yl]phenyl]methyl]triazole-4-carboxamide] gave a melting point of 193 to 195 °C. For the same compound, the pest or weed control at 200 ppm in the series with Phakopsora pachyrhizi was at least 80%. Besides, the pest or weed control at 200 ppm in series [1] is at least 80%. Besides, the inhibition of growth at 20 ppm in series [2] is at least 80%. In series [3], the pest or weed control at 200 ppm was at least 80%.

Usually melting point stands for the temperature, or range, at which the solid turns liquid.
